Measured values as given in paper PMC7465886, “4-(N-Alkyl- and -Acyl-amino)-1,2,4-triazole-3-thione Analogs as Metallo-β-Lactamase Inhibitors: Impact of 4-Linker on Potency and Spectrum of Inhibition” (Biomolecules, 2020).
Read-outs that look alike come from different tables or passages of the source.

How the values were obtained:
CphA = biological target: T1, CphA (Aeromonas hydrophila, UniProt P26918); test: MBL inhibition, CphA (imipenem hydrolysis); type: biochemical
T1 construct: made in house
Description: Compounds were prepared as 10 mM solutions in DMSO before dilution with appropriate buffers. Buffers were 25 mM Hepes pH 7.5 for CphA or 25 mM Hepes pH 7.5, 50 µM ZnCl2 for L1. The rates in the absence of inhibitor were not modified by addition of 1% DMSO. CphA and L1 enzymes, purified as previously described, were used at concentrations between 0.2 and 0.8 nM, respectively. The enzyme and the inhibitor (100 µM) were pre-incubated for 30 min in a volume of 495 µL at room temperature. The hydrolysis of a solution of 100 µM imipenem for CphA was monitored by following the absorbance variation at 300 nm using a Specord 50 PLUS spectrophotometer (Analytik Jena, Jena, Germany). For L1, the reporter substrate was nitrocefin (100 µM). The enzyme activity was measured by following the absorbance variation at 482 nm. The substrate hydrolysis was done at 30 °C. The activity was tested by measuring the initial rates in three samples without inhibitor that allowed to determine the percentage of residual β-lactamase activity in the presence of inhibitors. […] The Hanes linearization of the Henri–Michaelis equation was used, and Ki was calculated on the basis of the following equation, v = (Vmax.S)/[S + Km(1 + I/Ki)]. […]

VIM-4 [1] = biological target: T2, VIM-4 (Pseudomonas aeruginosa, UniProt A0A0F7KYQ8, S205R); test: MBL inhibition, reporter substrate method, VIM-4; type: biochemical
T2 construct: made in house; host or cells: E. coli BL21(DE3) derivative, pET-9a
Description: (§1) Compounds were prepared in DMSO at a final concentration of 50 mM prior to dilution in the assay buffer. The reaction rate was measured as the variation of absorbance observed upon substrate hydrolysis in a UV-Vis spectrophotometer or microplate reader at a wavelength of 300 nm (imipenem, meropenem), 260 nm (cefotaxime), or 482 nm (nitrocefin) and in the presence of a purified MBL enzyme (such as VIM-1, VIM-2, VIM-4, NDM-1, and IMP-1, at a final concentration ranging from 1 to 70 nM).
(§2) These enzymes were overproduced in derivatives of E. coli BL21(DE3) carrying a pET-9 a (IMP-1, VIM-1, VIM-2, and VIM-4) or pET-15 b (NDM-1) vector into which the metallo-β-lactamase-encoding open reading frame was cloned. Bacterial strains were grown in the auto-inducing medium, ZYP-5052, supplemented with 50 μg/mL kanamycin for 24 h at 37 °C [38]. IMP-1, VIM-1, VIM-2, and VIM-4 were purified by ion-exchange and gel filtration chromatography using an AKTA Purifier platform (GE Healthcare, Uppsala, Sweden) as previously described. NDM-1 (residues 37-270) was produced as an amino-terminal 6 xHis-tag fusion protein and was purified using affinity chromatography. After growth for 26 h at 25 °C, bacterial cells were harvested by centrifugation (10,000× g, 30 min, 4 °C), resuspended in 10 mM HEPES buffer (pH 7.5) containing 0.15 M NaCl (buffer A) in one-fifth of the original culture volume, and lysed by sonication. Cellular debris was removed by centrifugation (12,000× g, 40 min, 4 °C). The clarified sample was loaded on a HisTrap HP column (bed volume, 5 mL; GE Healthcare), followed by a wash step (25 mL) with buffer A containing 20 mM imidazole. Proteins were eluted using buffer A containing 350 mM imidazole. The resulting protein sample was desalted (HiPrep 26/10 Desalting column, GE Healthcare) using 20 mM triethanolamine (pH 7.2) supplemented with 50 μM ZnSO4 and concentrated using an Amicon Ultra-15 (MW cut-off, 10 kDa; Millipore, Burlington, MA, USA). The concentrated sample was loaded on a Superdex 75 prep grade column (XK16/100 column; bed volume, 140 mL; GE Healthcare) and the proteins eluted with buffer A containing 50 μM ZnSO4. The active fractions were pooled and stored at −20 °C. The purity of the protein preparations was estimated >95% by SDS-PAGE analysis. The authenticity of the enzyme preparations was confirmed by electron spray ionization mass spectrometry, as previously described.
(§3) The inhibition constants (Ki) were determined on the basis of a model of competitive inhibition by analyzing the dependence of the ratio v0/vi (v0, hydrolysis velocity in the absence of inhibitor; vi, hydrolysis velocity in the presence of inhibitor) as a function of [I] as already described. The slope of the plot of v0/vi vs. [I], which corresponds to Km^S/(Km^S + [S])Ki (where Km^S is the Km value of the reporter substrate and [S] its concentration in the reaction mixture) and allowed the calculation of the Ki value. Alternatively, a Dixon plot analysis was carried out by measuring the initial hydrolysis rates in the presence of variable concentrations of inhibitor and substrate. This allowed Ki values to be determined and supported the hypothesis that the various compounds behaved as competitive inhibitors of the various tested enzymes. The assays were performed in triplicate.

NDM-1 [2] = biological target: T3, NDM-1 (Klebsiella pneumoniae, UniProt C7C422); test: MBL inhibition, reporter substrate method, NDM-1; type: biochemical; settings: for inhibition at 100 µM: read-out: Inhibition of NDM-1 (dash in Ki column)
Description: as §1, §2, §3

VIM-2 [3] = biological target: T4, VIM-2 (Escherichia coli, UniProt Q5U7L7); test: MBL inhibition, reporter substrate method, VIM-2; type: biochemical; settings: hydrazine and hydrazide series; read-out: Ki Value VIM-2
T4 construct: made in house; host or cells: E. coli BL21(DE3) derivative, pET-9a
Description: as §1, §2, §3

[4] = system: E. coli LZ2310(pLBII-VIM-2); test: microbe, parasite or virus in culture; type: cell-based, Escherichia coli; settings: for Restoration of cefoxitin activity (in words): 30 μg cefoxitin disk, compound 1 at 48 μg, EUCAST clinical breakpoints; for zone of inhibition at 40 µg/disc / zone of inhibition at 120 µg/disc: Escherichia coli, read-out: Inhibition Zone Diameter
Description: (§4) The potential activity of selected compounds was assessed by the agar disk-diffusion method, according to the CLSI (Clinical Laboratory Standard Institute) recommendations, using Mueller–Hinton medium. The inhibitor (dissolved in DMSO) was added (maximum volume of 15 μL) to a commercially available disk containing a defined amount of a β-lactam antibiotic (30 μg of cefoxitin (Oxoid, Milan, Italy)). After incubation (18 h at 35 °C), the diameter of the growth inhibition zone was measured and compared to that obtained in the absence of inhibitor. DMSO and EDTA (220 μg) were used as negative and positive controls, respectively. Experiments were performed in triplicate.
These tests were performed on an isogenic laboratory strain obtained after transforming Escherichia coli LZ2310 strain with a derivative of the high copy number plasmid pLB-II carrying the cloned blaVIM-2 gene harboring a cloned gene encoding the functional metallo-β-lactamase. Strain LZ2310 is a triple knockout mutant derived from K12 in which the genes encoding for components of the three major efflux pump systems were inactivated (genotype, ∆norE ∆mdfA N43 acrA1) and was used to generate an hyperpermeable background for MBL production and investigate the potential contribution of such mechanisms to inhibitor efflux.

L1 = biological target: T5, L1 (Stenotrophomonas maltophilia, UniProt P52700); test: MBL inhibition, L1 (nitrocefin hydrolysis); type: biochemical; settings: for inhibition at 100 µM: 100 μM inhibitor, read-out: Inhibition of L1 (dash)
T5 construct: made in house
Description: Compounds were prepared as 10 mM solutions in DMSO before dilution with appropriate buffers. Buffers were 25 mM Hepes pH 7.5 for CphA or 25 mM Hepes pH 7.5, 50 µM ZnCl2 for L1. The rates in the absence of inhibitor were not modified by addition of 1% DMSO. CphA and L1 enzymes, purified as previously described, were used at concentrations between 0.2 and 0.8 nM, respectively. The enzyme and the inhibitor (100 µM) were pre-incubated for 30 min in a volume of 495 µL at room temperature. The hydrolysis of a solution of 100 µM imipenem for CphA was monitored by following the absorbance variation at 300 nm using a Specord 50 PLUS spectrophotometer (Analytik Jena, Jena, Germany). For L1, the reporter substrate was nitrocefin (100 µM). The enzyme activity was measured by following the absorbance variation at 482 nm. The substrate hydrolysis was done at 30 °C. The activity was tested by measuring the initial rates in three samples without inhibitor that allowed to determine the percentage of residual β-lactamase activity in the presence of inhibitors. If the residual activity in the presence of 100 µM inhibitor was <30%, the initial rate conditions were used to study the inhibition in the presence of increasing concentrations of compounds (from 1 to 100 µM) and to determine the competitive inhibition constant Ki. The Hanes linearization of the Henri–Michaelis equation was used, and Ki was calculated on the basis of the following equation, v = (Vmax.S)/[S + Km(1 + I/Ki)]. The assays were performed in triplicates.

VIM-1 = biological target: T6, VIM-1 (Pseudomonas aeruginosa, UniProt A0A0F7KYQ8); test: MBL inhibition, reporter substrate method, VIM-1; type: biochemical
T6 construct: made in house; host or cells: E. coli BL21(DE3) derivative, pET-9a
Description: as §1, §2, §3

IMP-1 [5] = biological target: T7, IMP-1 (Serratia marcescens, UniProt P52699); test: MBL inhibition, reporter substrate method, IMP-1; type: biochemical; settings: for inhibition at 100 µM: read-out: Inhibition of IMP-1 (dash in Ki column)
T7 construct: made in house; host or cells: E. coli BL21(DE3) derivative, pET-9a
Description: as §1, §2, §3

[6] = system: VIM-4-producing laboratory strain; test: Disk diffusion on VIM-4-producing laboratory strain; type: cell-based
Description: as §4

NDM-1 [7] = biological target: T3, NDM-1; parameters: method as in PMID 32937203; settings: Schiff base analogs; read-out: Ki Value NDM-1, hydrazone-like compound (converted); cited from earlier work
IMP-1 [8] = biological target: T7, IMP-1; parameters: method as in PMID 32937203; settings: in parentheses; 100 μM inhibitor; cited from earlier work
VIM-4 [9] = biological target: T2, VIM-4; parameters: method as in PMID 32937203; settings: Figure 1; read-out: Ki VIM-4, Schiff base; cited from earlier work
VIM-2 [10] = biological target: T4, VIM-2; settings: Schiff base analogs; read-out: Ki Value VIM-2, hydrazone-like compound (converted); cited from earlier work
[11] = read-out: Inhibition of VIM-1 (dash)

T5 sequence (P52700 34-290): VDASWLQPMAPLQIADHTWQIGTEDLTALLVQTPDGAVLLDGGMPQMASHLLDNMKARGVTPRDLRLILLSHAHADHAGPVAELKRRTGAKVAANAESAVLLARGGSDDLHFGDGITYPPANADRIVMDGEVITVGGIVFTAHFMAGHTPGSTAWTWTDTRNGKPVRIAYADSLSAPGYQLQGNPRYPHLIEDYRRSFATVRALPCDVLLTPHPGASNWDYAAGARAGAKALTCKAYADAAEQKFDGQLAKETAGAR
T7 sequence (P52699 19-246 limits assumed): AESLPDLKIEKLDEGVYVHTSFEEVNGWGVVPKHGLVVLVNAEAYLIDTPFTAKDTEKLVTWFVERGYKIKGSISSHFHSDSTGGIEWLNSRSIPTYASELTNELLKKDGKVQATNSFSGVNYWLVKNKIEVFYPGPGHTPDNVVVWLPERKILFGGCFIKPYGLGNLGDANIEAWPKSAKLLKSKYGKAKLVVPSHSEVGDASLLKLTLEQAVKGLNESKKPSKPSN
T3 sequence (C7C422 37-270 limits assumed): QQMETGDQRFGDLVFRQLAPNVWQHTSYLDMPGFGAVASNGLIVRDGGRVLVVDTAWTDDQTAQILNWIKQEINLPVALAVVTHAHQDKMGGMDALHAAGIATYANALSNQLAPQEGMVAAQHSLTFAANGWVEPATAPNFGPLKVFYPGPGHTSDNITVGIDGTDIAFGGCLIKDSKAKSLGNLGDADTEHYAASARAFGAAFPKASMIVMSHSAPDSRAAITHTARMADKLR
T1 sequence (P26918 28-254): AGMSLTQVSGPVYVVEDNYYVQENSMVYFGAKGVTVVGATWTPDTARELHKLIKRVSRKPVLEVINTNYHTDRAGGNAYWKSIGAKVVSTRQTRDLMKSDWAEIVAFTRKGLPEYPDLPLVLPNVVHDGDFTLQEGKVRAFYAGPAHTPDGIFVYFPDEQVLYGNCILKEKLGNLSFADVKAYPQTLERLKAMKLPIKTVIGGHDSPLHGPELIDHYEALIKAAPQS

Structure (SMILES) | Ki (VIM-4 [1]) | inhibition at 100 µM (NDM-1 [2]) | Ki (VIM-2 [3]) | Restoration of cefoxitin activity (in words) [4] | zone of inhibition at 40 µg/disc [4] | inhibition at 100 µM (VIM-1; [11]) | inhibition at 100 µM (IMP-1 [5]) | zone of inhibition at 120 µg/disc [4] | Ki (VIM-1) | inhibition at 100 µM (L1) | also measured
Cc1ccccc1-c1n[nH]c(=S)n1NCc1ccccc1C(=O)O [Compound 2] | 10 ± 1 µM | < 40% | 8 ± 0.7 µM | did not show any remarkable activity | 11 mm | < 30% | < 40% |  |  |  | Ki (CphA): 100 ± 10 µM; Ki (L1): 110 ± 10 µM
O=C(O)c1ccccc1CNn1c(-c2cccc(-c3ccccc3)c2)n[nH]c1=S [Compound 3] | 0.57 ± 0.03 µM |  | 0.24 ± 0.02 µM | devoid of activity |  |  |  | 11 mm | 3.6 ± 0.2 µM |  | Ki (NDM-1 [2]; hydrazine series, read-out: Ki Value NDM-1): 8.2 ± 0.7 µM; Restoration of β-lactam activity (in words) [6]: lack of restoration activity; Ki (IMP-1 [5]; hydrazine series, read-out: Ki Value IMP-1): 76 ± 13 µM
O=C(O)c1ccccc1CNn1c(-c2ccc3ccccc3c2)n[nH]c1=S [Compound 4] | 6.3 ± 0.7 µM | < 40% | 4.2 ± 0.9 µM | did not show any remarkable activity |  |  | < 40% | 10 mm |  | < 30% | inhibition at 100 µM (VIM-1; read-out: Percentage of Inhibition at 100 μM Inhibitor, VIM-1): 32%
O=C(O)c1ccccc1CNn1c(Cc2ccccc2)n[nH]c1=S [Compound 6] |  | < 40% | 8.5 ± 2.3 µM | did not show any remarkable activity | 10 mm | < 30% | < 40% |  |  | < 30% | inhibition at 100 µM (VIM-4 [1]; read-out: Inhibition of VIM-4 (dash)): < 30%
O=C(O)c1ccccc1CNn1c(Cc2ccc3ccccc3c2)n[nH]c1=S [Compound 7] | 4.7 ± 0.3 µM | < 40% | 1.8 ± 0.2 µM | did not show any remarkable activity |  |  | < 40% | 11 mm | 19.5 ± 1.3 µM |  | 
O=C(O)c1ccccc1/C=N/n1c(-c2ccccc2)n[nH]c1=S [JMV4390] |  |  |  |  |  |  |  |  |  |  | Ki (NDM-1 [7]): 38 µM; Inhibition of IMP-1 (dash in Ki column), corresponding hydrazone-like compound (IMP-1 [8]): -^2 (-) (<40% of inhibition in the presence of 100 μM inhibitor); Ki (VIM-4 [9]): 1.4 µM; Ki (VIM-2 [10]): 2.7 µM
